The subject of data set [1] is TNFα levels in LPS stimulated whole blood. Put plainly: LPS Stimulated Whole Blood Measuring TNFα Levels Assay. The format is cell-based. To be noted: LPS 200 ng/ml, 24 hours, read-out: pIC50 (TNFα levels) (converted). On the procedure:
LPS Stimulated Whole Blood Measuring TNFα Levels Assay
Activation of monocytic cells by agonists of toll-like receptors such as bacterial lipopolysaccharide (LPS) results in production of key inflammatory mediators including TNFα. Such pathways are widely considered to be central to the pathophysiology of a range of auto-immune and inflammatory disorders.
(§1) Compounds to be tested are diluted to give a range of appropriate concentrations and 1 ul of the dilution stocks is added to wells of a 96 plate. Following addition of whole blood (130 ul) the plates are incubated at 37 degrees (5% CO2) for 30 min before the addition of 10 ul of 2.8 ug/ml LPS, diluted in complete RPMI 1640 (final concentration=200 ng/ml), to give a total volume of 140 ul per well. After further incubation for 24 hours at 37 degrees, 140 ul of PBS are added to each well. The plates are sealed, shaken for 10 minutes and then centrifuged (2500 rpm×10 min). 100 ul of the supernatant are removed and TNFα levels assayed by immunoassay (typically by MesoScale Discovery technology) either immediately or following storage at −20 degrees. Dose response curves for each compound was generated from the data and an IC50 value was calculated.

Data set [2] relates to Balb/c male mice given a lethal dose of LPS. As to the kind of experiment: In Vivo Mouse Endotoxemia Model. Conditions: 15 mg/kg LPS i.p.; compound 10 mg/kg intravenously 90 min later; summed across multiple repeat experiments. The source says:
In Vivo Mouse Endotoxemia Model
High doses of Endotoxin (bacterial lipopolysaccharide) administered to animals produce a profound shock syndrome including a strong inflammatory response, dysregulation of cardiovascular function, organ failure and ultimately mortality. This pattern of response is very similar to human sepsis and septic shock, where the body's response to a significant bacterial infection can be similarly life threatening.
To test the compounds of the invention groups of eight Balb/c male mice were given a lethal dose of 15 mg/kg LPS by intraperitoneal injection. Ninety minutes later, animals were dosed intravenously with vehicle (20% cyclodextrin 1% ethanol in apyrogen water) or compound (10 mg/kg). The survival of animals was monitored at 4 days.
Numbers of animals surviving at 4 days (summed across multiple repeat experiments)

Data set [3] concerns Human cell lines (n=33 comprising 15 heme cell lines, 14 breast cell lines and 4 other cell lines). As to the kind of experiment: Oncology Growth Assay (CellTiter-Glo). The format is cell-based. Conditions: 72 hours. The procedure:
Human cell lines (n=33 comprising 15 heme cell lines, 14 breast cell lines and 4 other cell lines) were cultured in RPMI-1640 containing 10% fetal bovine serum, 1000 viable cells per well were plated in 384-well black flat bottom polystyrene plates (Greiner #781086) in 48 μl of culture media. All plates were placed at 5% CO2, 37° C. overnight. The following day one plate was harvested with CellTiter-Glo (CTG, Promega #G7573) for a time equal to 0 (T0) measurement and compound (20 point titration from 14.7 uM to […]) was added to the remaining plates. The final concentration of DMSO in all wells was 0.15%. Cells were incubated for 72 hours or the indicated time and each plate was developed with CellTiter-Glo reagent using a volume equivalent to the cell culture volume in the wells. Plates were shaken for approximately 2 minutes and chemiluminescent signal was read on the Analyst GT (Molecular Devices) or EnVision Plate Reader (Perkin Elmer).
Results were expressed as a percent of the TO and plotted against the compound concentration. The TO value was normalized to 100% and represents the number of cells at time of compound addition and the concentration response data were fit with a 4 parameter curve fit using XLfit software (model 205). The concentration that inhibited cell growth by 50% (gIC50) is the midpoint of the ‘growth window’ (between the TO and DMSO control). The Ymin−T0 value is determined by subtracting the T0 value (100%) from the Ymin value (%) determined from the fit of the concentration response curve. Values from the wells with no cells were subtracted from all samples for background correction.
(In ATP-based viability assays light output follows the ATP content of the culture.)

Data set [4] relates to LPS induced IL-6 secretion from whole blood. Put plainly: Measurement of LPS Induced IL-6 Secretion from Whole Blood. In kind it is cell-based. To be noted: LPS 200 ng/ml, 24 hours, read-out: pIC50 (IL-6 levels) (converted). The procedure: Measurement of LPS Induced IL-6 Secretion from Whole Blood
Activation of monocytic cells by agonists of toll-like receptors such as bacterial lipopolysaccharide (LPS) results in production of key inflammatory mediators including IL-6. Such pathways are widely considered to be central to the pathophysiology of a range of auto-immune and inflammatory disorders.
as §1, with “concentrations of which” for “concentrations and”, “the diluted” for “the dilution”, “to” for “to wells of”, “96 well” for “96”, “and IL-6” for “and TNFα”, “degrees. Concentration” for “degrees. Dose”

pIC50: −log10 of the molar value. Read-outs that look alike come from different tables or passages of the source. Bounds are passed on as bounds.

`CCN(c1ccccc1)[C@H]1C[C@@H](C)N(C(C)=O)c2ccc(-c3ccccc3)cc21` (stereo in doubt) [Example 87, 1-acetyl-N-ethyl-2-methyl-N,6-diphenyl-1,2,3,4-tetrahydro-4-quinolinamine] came in with a melting point of 121 °C. Moreover, the IC50 in data set [1] was at most 10 µM.

Turning to `CC(=O)N1c2ccc(-c3ccc(C(=O)O)cc3)cc2[C@H](Nc2ccc(Cl)cc2)C[C@@H]1C` [Example 6, 4-{(2S,4R)-1-acetyl-4-[(4-chlorophenyl)amino]-2-methyl-1,2,3,4-tetrahydro-6-quinolinyl}benzoic acid], the “Animals surviving at 4 days (percent)” value in data set [2] was found to be 58%. Also, the “Numbers of animals surviving at 4 days” value in data set [2] is recorded as 14/24. Besides, the pIC50 in data set [3] (all 33 cell lines, read-out: gIC50 across all cell lines) was 5.04 to 7.46; in data set [3] (breast cell lines, read-out: gIC50 for breast cell lines), 5.04 to 7.40; in data set [3] (heme cell lines, read-out: gIC50 for heme cell lines), 6.07 to 7.46. For the same molecule, in data set [4], the IC50 was at most 10 µM.

In turn, `CC(=O)N1c2ccc(-c3ccc(C(=O)N4CCOCC4)cc3)cc2C(Nc2ccc(Cl)cc2)CC1C` (stereo not drawn) [Example 109] came in with a melting point of 146 °C. The IC50 in data set [1] was at most 10 µM.

Molecule `CC(=O)N1c2ccc(-c3ccc(C#N)cc3)cc2[C@@H](Nc2ccc(F)cc2)C[C@H]1C` (racemic) [Example 62, 4-{1-acetyl-4-[(4-fluorophenyl)amino]-2-methyl-1,2,3,4-tetrahydro-6-quinolinyl}benzonitrile] showed a melting point of 140 °C.

The molecule `COC(=O)c1ccc(-c2ccc3c(c2)C(Nc2ccc(C#N)cc2)CC(C)N3C(C)=O)cc1` (stereo not drawn) [Example 82] returned a melting point of 252 °C.

Broadly, the melting point is the temperature, or range, at which the solid turns liquid.

The values are drawn from patent US8580957B2, “Thetrahydroquinolines derivatives as bromodomain inhibitors” (GlaxoSmithKline LLC, priority 2009, dated 2013).
